Source: patent US8742106B2 (Novartis AG, priority 2009, dated 2014)

Assays:
human orexin 2 receptors = human orexin 2 receptors (Homo sapiens (Human), UniProt O43614); assay: Calcium Accumulation in Cells (FLIPR), antagonism of orexin A; type: cell-based; settings: for Ki: antagonism of orexin A, Cheng-Prusoff corrected, read-out: FLIPR hOx2R Ki; for inhibition at 10 µM: measured at a concentration of 10 μM of compound, read-out: FLIPR hOx2R % inhibition value
Description: (§1) Calcium Accumulation in Cells (FLIPR):
Cells expressing human orexin 1 or human orexin 2 receptors, were seeded at 8,000 cells/well in 384 well black-walled clear bottom, poly-D-lysine coated plates.
On the day of the experiment, the cells seeded in black plates were treated with assay buffer containing the Ca^2+ sensitive fluorescent dye Fluo4-AM (2 μM), and probenecid (0.1 mM). After 1 h plates were washed twice with, and resuspended in, assay buffer containing probenecid (0.1 mM) using a multi plate washer. […] Fluorescence measurements were then continued every 1 S for 120 S followed by every 4 S for 240 S.
(§2) The measurements were typically made in two sequences:
(§3) In the first round, compounds of formula (I) or (I′) were tested alone, to detect possible agonist activity. Compounds of formula I or I′ were tested usually in a concentration range from 10^−9 M to 10^−5 M.
(§4) In the second round, performed one hour later (to allow for equilibration), Orexin A was tested either in the absence (calibration curves, Orexin A agonist controls) or in the presence of compounds of formula (I) or (I′) to determine antagonism.

human orexin 1 receptors = human orexin 1 receptors (Homo sapiens (Human), UniProt O43613); assay: as above; type: cell-based; settings: for Ki: antagonism of orexin A, Cheng-Prusoff corrected, read-out: FLIPR hOx1R Ki; for inhibition at 10 µM: measured at a concentration of 10 μM of compound, read-out: FLIPR hOx1R % inhibition value
Description: as §1
Cells expressing human orexin 1 or human orexin 2 receptors, were seeded at 8,000 cells/well in 384 well black-walled clear bottom, poly-D-lysine coated plates. After 24 h, the medium was removed and cells were washed once with phosphate buffered saline and serum-deprived overnight in assay buffer (130 mM NaCl, 5.4 mM KCl, 1.8 mM CaCl2, 0.8 mM MgSO4, 0.9 mM NaH2PO4, 25 mM glucose, 20 mM HEPES, pH 7.4) containing bovine serum albumin (1% w/v).
On the day of the experiment, the cells seeded in black plates were treated with assay buffer containing the Ca^2+ sensitive fluorescent dye Fluo4-AM (2 μM), and probenecid (0.1 mM). After 1 h plates were washed twice with, and resuspended in, assay buffer containing probenecid (0.1 mM) using a multi plate washer. The plates were placed into a FLIPR II (Fluorometric Imaging Plate Reader, Molecular Devices, Sunnyvale, Calif., USA) and baseline fluorescence (fluorescence light units, FLU) was measured (5 measurements, 2 S each; laser excitation 488 nm at 0.6-1 W, CCD camera exposure 0.4 s) before addition of buffer alone (basal) or containing test compounds (either compound of formula (I) or (I′) alone, agonist alone or agonist in the presence of various concentrations of compounds of formula (I) or (I′)). Fluorescence measurements were then continued every 1 S for 120 S followed by every 4 S for 240 S.
as §2, §3, §4

human orexin 2 receptors, sequence (O43614 whole entry): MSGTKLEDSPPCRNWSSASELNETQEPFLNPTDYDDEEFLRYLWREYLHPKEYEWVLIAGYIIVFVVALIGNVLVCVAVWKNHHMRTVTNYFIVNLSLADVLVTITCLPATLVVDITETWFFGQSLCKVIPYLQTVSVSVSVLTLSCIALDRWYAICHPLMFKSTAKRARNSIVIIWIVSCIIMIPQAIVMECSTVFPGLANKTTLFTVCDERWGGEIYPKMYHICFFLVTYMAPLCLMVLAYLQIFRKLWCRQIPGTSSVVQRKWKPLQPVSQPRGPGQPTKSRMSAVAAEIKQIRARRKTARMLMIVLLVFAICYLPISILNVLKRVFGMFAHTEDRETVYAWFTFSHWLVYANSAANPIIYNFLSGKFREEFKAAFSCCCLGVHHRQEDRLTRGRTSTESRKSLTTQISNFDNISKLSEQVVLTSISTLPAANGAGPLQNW
human orexin 1 receptors, sequence (O43613 whole entry): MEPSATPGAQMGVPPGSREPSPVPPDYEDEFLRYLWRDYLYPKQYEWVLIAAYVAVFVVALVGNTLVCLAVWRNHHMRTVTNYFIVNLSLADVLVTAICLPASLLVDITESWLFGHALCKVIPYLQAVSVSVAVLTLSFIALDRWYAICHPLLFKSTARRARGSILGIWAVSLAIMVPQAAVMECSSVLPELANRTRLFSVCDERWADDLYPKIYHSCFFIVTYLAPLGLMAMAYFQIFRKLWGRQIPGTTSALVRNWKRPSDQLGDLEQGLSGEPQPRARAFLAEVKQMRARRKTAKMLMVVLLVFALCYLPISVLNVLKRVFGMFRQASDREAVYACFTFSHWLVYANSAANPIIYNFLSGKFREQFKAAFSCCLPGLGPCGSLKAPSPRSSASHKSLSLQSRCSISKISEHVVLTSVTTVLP

SMILES | Ki (human orexin 2 receptors) [µM] | Ki (human orexin 1 receptors) [µM] | inhibition at 10 µM (human orexin 2 receptors) [%] | inhibition at 10 µM (human orexin 1 receptors) [%]
COc1ccc([C@H](C)NC(=O)COc2cc(C)c3c(C(C)C)nn(C)c3n2)cc1 [Example 6.27, (S)-2-(3-isopropyl-1,4-dimethyl-1H-pyrazolo[3,4-b]pyridin-6-yloxy)-N-(1-(4-methoxyphenyl)ethyl)acetamide] | 0.105 | 0.415 |  | 
Cc1cnc(CNC(=O)COc2cc(C)c3c(C4CC4)nn(C)c3n2)cn1 [Example 7.2, 2-(3-cyclopropyl-1,4-dimethyl-1H-pyrazolo[3,4-b]pyridin-6-yloxy)-N-((5-methylpyrazin-2-yl)methyl)acetamide] |  |  | 15 | < 10
Cc1cc(OCC(=O)NCc2cccc3[nH]ncc23)nc2c1c(C1CC1)nn2C [Example 7.15, N-((1H-indazol-4-yl)methyl)-2-(3-cyclopropyl-1,4-dimethyl-1H-pyrazolo[3,4-b]pyridin-6-yloxy)acetamide] |  |  | 18 | 26
Cc1cc(OCC(=O)NC(C)c2cnn(C)c2)nc2c1c(C1CC1)nn2C (stereo not drawn) [Example 7.20, 2-(3-cyclopropyl-1,4-dimethyl-1H-pyrazolo[3,4-b]pyridin-6-yloxy)-N-(1-(1-methyl-1H-pyrazol-4-yl)ethyl)acetamide] |  |  | 31 | 34
Cc1nn(C)c(C)c1C(C)NC(=O)COc1cc(C(F)(F)F)c2c(C3CC3)nn(C)c2n1 (stereo not drawn) [Example 6.12, 2-(3-cyclopropyl-1-methyl-4-(trifluoromethyl)-1H-pyrazolo[3,4-b]pyridin-6-yloxy)-N-(1-(1,3,5-trimethyl-1H-pyrazol-4-yl)ethyl)acetamide] | 0.165 | 0.68 |  | 
Cc1cc(OCC(=O)NC(C)c2nc3ccccc3s2)nc2c1c(C1CC1)nn2C (stereo not drawn) [Example 7.23, N-(1-(benzo[d]thiazol-2-yl)ethyl)-2-(3-cyclopropyl-1,4-dimethyl-1H-pyrazolo[3,4-b]pyridin-6-yloxy)acetamide] | 0.15 | 0.564 |  | 
Cc1nn(C)c(C)c1C(C)NC(=O)COc1cc(C)c2c(C3CC3)nn(C)c2n1 (stereo not drawn) [Example 1.72, 2-(3-cyclopropyl-1,4-dimethyl-1H-pyrazolo[3,4-b]pyridin-6-yloxy)-N-(1-(1,3,5-trimethyl-1H-pyrazol-4-yl)ethyl)acetamide] | 1.23 | 2.12 |  | 
Cc1ccc(C(C)NC(=O)COc2cc(C(F)(F)F)c3c(C4CC4)nn(C)c3n2)cn1 (stereo not drawn) [Example 6.16, 2-(3-cyclopropyl-1-methyl-4-(trifluoromethyl)-1H-pyrazolo[3,4-b]pyridin-6-yloxy)-N-(1-(6-methylpyridin-3-yl)ethyl)acetamide] | 0.188 | 1.59 |  | 
Cc1cc(OCC(=O)NCc2cccc3cnn(C)c23)nc2c1c(C1CC1)nn2C [Example 7.10, 2-(3-cyclopropyl-1,4-dimethyl-1H-pyrazolo[3,4-b]pyridin-6-yloxy)-N-((1-methyl-1H-indazol-7-yl)methyl)acetamide] |  |  | 40 | 34
Cc1ccc([C@H](C)NC(=O)COc2nc3c(cc2C)c(C2CC2)nn3C)cc1 [Example 6.60, (S)-2-(3-cyclopropyl-1,5-dimethyl-1H-pyrazolo[3,4-b]pyridin-6-yloxy)-N-(1-p-tolylethyl)acetamide] | 1.17 |  |  | 11
CC(C)c1noc(C(C)NC(=O)COc2cc(C(F)(F)F)c3c(-c4ccccc4)nn(C)c3n2)n1 (stereo not drawn) [Example 1.36, N-(1-(3-isopropyl-1,2,4-oxadiazol-5-yl)ethyl)-2-(1-methyl-3-phenyl-4-(trifluoromethyl)-1H-pyrazolo[3,4-b]pyridin-6-yloxy)acetamide] |  | 3.36 | 30 | 
Cc1cc(OCC(=O)NC2CCCc3ncccc32)nc2c1c(C1CC1)nn2C (stereo not drawn) [Example 7.8, 2-(3-cyclopropyl-1H-dimethyl-1H-pyrazolo[3,4-b]pyridin-6-yloxy)-N-(5,6,7,8-tetrahydroquinolin-5-yl)acetamide] |  |  | 20 | 26
